Experimental data from patent US20200030355A1, “COMBINATION THERAPY FOR TREATING CANCER” (Epizyme, Inc., priority 2014, published 2020).

Experiments:
SKM-1 (non-MLLr) = assay: EPZ-5676 7-day pre-treatment, then second compound 72 hours, growth inhibition GI100 shift; primary screen and retest (Example 7); assay type: cell-based, human; conditions: 300 nM EPZ-5676 7-day pre-treatment, Cell Titer Glo
Experimental: (§1) Cells were then equilibrated in incubators for 24 hours before treatment with a second compound. Treated assay plates were incubated with a second compound for 72 hours. After this time, plates were developed for endpoint analysis using ATPLite to measure ATP content, which is used as an indicator of cell viability.
(§2) Cells were then treated with a second compound for 72 hours. After this time, plates were developed for endpoint analysis using Cell Titer Glo to measure ATP content, which is used as an indicator of cell viability.
(§3) “N/D” means the GI100 of the second compound could not be determined for both conditions and “-” means not tested.
(§4) Growth Inhibition (GI) as a measure of cell viability: The cell viability of vehicle was measured at the time of dosing the second agent (T0) and after seventy-two hours (T72). […] A GI 200% represents complete death of all cells in the culture well. Compounds reaching an activity plateau of GI 200% are considered cytotoxic. GI is calculated by applying the following test and equation: […]
(§5) where T is the signal measure for a test article, V is the vehicle-treated control measure, and V0 is the vehicle control measure at time zero.

MOLM-13 (MLL-AF9) [1] = assay: as above; assay type: cell-based, human; conditions: second compound 72 hours; for Combination with EPZ-5676, MOLM-13 (MLL-AF9) Retest: 150 nM EPZ-5676 7-day pre-treatment, Cell Titer Glo; for Combination with EPZ-5676, MOLM-13 (MLL-AF9) Primary screen: 300 nM EPZ-5676 7-day pre-treatment, ATPLite
Experimental: as §1, §2, §3, §4, §5

OCI-AML-4 (MLL-ENL) = assay: as above; assay type: cell-based; conditions: 300 nM EPZ-5676 7-day pre-treatment; second compound 72 hours; Cell Titer Glo
Experimental: as §1, §2, §3, §4, §5

SKM-1 cells = assay: EPZ-5676 300 nM 7-day pre-treatment, then second compound 72 hours, ATPLite, IC50 shift (Example 6); assay type: cell-based, human; conditions: SKM-1 cells; 300 nM EPZ-5676 or DMSO 7-day pre-treatment, then 2nd compound 72 hours, ATPLite; Synergy = IC50 of 2nd compound decreased by 2-fold or more vs DMSO control
Experimental: as §1
(§6) “N/D” means that IC50 of the second compound could not be determined for both conditions.

MOLM-13 cells = assay: as above; assay type: cell-based, human; conditions: 300 nM EPZ-5676 or DMSO 7-day pre-treatment, then 2nd compound 72 hours, Synergy = IC50 of 2nd compound decreased by 2-fold or more vs DMSO control
Experimental: as §1, §6

MOLM-13 (MLL-AF9) [2] = assay: Combination proliferation study with Compound A2 (ATP/CellTiter-Glo, Chou-Talalay combination index); assay type: cell-based, human; conditions: 7 Day Cotreatment Model, Table 5
Experimental: The acute myelogenous leukemia cell lines MV4-11 (MLL-AF4) and MOLM-13 (MLL-AF9) were obtained from American Type Culture Collection (ATCC; Rockville, Md.) and Deutsche Sammlung von Mikroorganismen and Zellkulturen (DSMZ; Braunschweig, Germany) respectively.
(§7) Studies were performed using MLL-rearranged cell lines in vitro to evaluate the anti-proliferative effect of a combination of two agents together on cell growth. Initial proliferation studies were performed to determine the IC50 of a given compound in each cell line. The cell counts were measured by ATP quantitation using the Promega Cell Titer Glo kit and luminescence values corresponded to the amount of ATP in a given well.
Compounds were evaluated for synergy in the co-treatment phase by testing the compounds in a concentration range which was bracketed around their IC50 values. The compounds were plated to a 96 well plate in a matrix format (FIG. 3) which includes increasing concentrations of each drug in the combination in a constant ratio, in addition to the effect of each compound alone in the study. Cells were seeded and grown in the log-linear phase for 3 or 7 days in the co-treatment phase. Minimum inhibition (DMSO alone) controls were used in each plate to calculate fraction affected (Fa) of a test well. DMSO concentration was kept at 0.1% v/v.
The drug combination analysis was performed utilizing the Chou-Talalay method Synergy was determined using the software package Calcusyn by Biosoft. The combination index (CI) is a quantitative term used to describe the level of synergy or antagonism in a given test system. A combination index less than one indicates synergy, and a CI greater than one indicates antagonism. Further, strong synergism is achieved when the CI value falls below 0.3.
Graphs representing values of combination index (CI) versus Fractional effect (Fa) known as Fa-CI plots were generated and synergy was evaluated. Drug synergy was statistically defined by CI values less than 1, antagonism by CI>1 and additive effect by CI equal to 1.
Graphs representing values of combination index (CI) versus Fractional effect (Fa) known as Fa-CI plots were generated and synergy was evaluated. Drug synergy was statistically defined by CI values less than 1, antagonism by CI>1 and additive effect by CI equal to 1. […]
Cell viability was measured via ATP content using CellTiter-Glo® (Promega).
as §7, with “Proliferation studies” for “Studies”, “MOLM-13, MV4-11 and SKM-1” for “MLL-rearranged”, “cancer cell killing” for “anti-proliferative”, “IC50 values” for “IC50”, “correspond” for “corresponded”, “well. […]” for “well.”
Compounds evaluated for synergy in the co-treatment phase were tested in a range which was bracketed around the IC50's.

SMILES	SKM-1 (summary of combination study: EPZ-5676 + 2nd compound) (SKM-1 cells)	MOLM-13 (summary of combination study: EPZ-5676 + 2nd compound) (MOLM-13 cells)	also measured
Cn1cnc2c(F)c(Nc3ccc(Br)cc3F)c(C(=O)NOCCO)cc21 [Binimetinib (MEK-162), Binimetinib]	–	–	Combination with EPZ-5676, SKM-1 (non-MLLr) Retest (SKM-1 (non-MLLr)): Synergy (considered synergistic if the GI100 (Growth inhibition 100) value of the second compound decreased by 2-fold or more when EPZ-5676 was added as compared to the DMSO control); Combination with EPZ-5676, MOLM-13 (MLL-AF9) Retest (MOLM-13 (MLL-AF9) [1]): Synergy (considered synergistic if the GI100 (Growth inhibition 100) value of the second compound decreased by 2-fold or more when EPZ-5676 was added as compared to the DMSO control); Combination with EPZ-5676, OCI-AML-4 (MLL-ENL) Retest (OCI-AML-4 (MLL-ENL)): Synergy (considered synergistic if the GI100 (Growth inhibition 100) value of the second compound decreased by 2-fold or more when EPZ-5676 was added as compared to the DMSO control)
Cn1nccc1Nc1nccc(-c2ccn([C@H](CO)c3ccc(Cl)c(F)c3)c(=O)c2)n1 [GDC0994]	–	–	Combination with EPZ-5676, SKM-1 (non-MLLr) Retest (SKM-1 (non-MLLr)): Synergy (considered synergistic if the GI100 (Growth inhibition 100) value of the second compound decreased by 2-fold or more when EPZ-5676 was added as compared to the DMSO control); Combination with EPZ-5676, OCI-AML-4 (MLL-ENL) Retest (OCI-AML-4 (MLL-ENL)): Synergy (considered synergistic if the GI100 (Growth inhibition 100) value of the second compound decreased by 2-fold or more when EPZ-5676 was added as compared to the DMSO control)
CC(C)Nc1cc(-c2c[nH]c(C(=O)N[C@H](CO)c3cccc(Cl)c3)c2)c(Cl)cn1 [Ulixertinib]	–	–	Combination with EPZ-5676, SKM-1 (non-MLLr) Retest (SKM-1 (non-MLLr)): Synergy (considered synergistic if the GI100 (Growth inhibition 100) value of the second compound decreased by 2-fold or more when EPZ-5676 was added as compared to the DMSO control); Combination with EPZ-5676, MOLM-13 (MLL-AF9) Retest (MOLM-13 (MLL-AF9) [1]): Synergy (considered synergistic if the GI100 (Growth inhibition 100) value of the second compound decreased by 2-fold or more when EPZ-5676 was added as compared to the DMSO control); Combination with EPZ-5676, OCI-AML-4 (MLL-ENL) Retest (OCI-AML-4 (MLL-ENL)): Synergy (considered synergistic if the GI100 (Growth inhibition 100) value of the second compound decreased by 2-fold or more when EPZ-5676 was added as compared to the DMSO control)
Cn1c(Nc2ccc(C(F)(F)F)cc2)nc2cc(Oc3ccnc(-c4ncc(C(F)(F)F)[nH]4)c3)ccc21 [RAF265]	–	–	Combination with EPZ-5676, MOLM-13 (MLL-AF9) Primary screen (MOLM-13 (MLL-AF9) [1]): Synergy (considered synergistic if the GI100 (Growth inhibition 100) value of the second compound decreased by 2-fold or more when EPZ-5676 was added as compared to the DMSO control)
CN(C)C(=O)c1cc2cnc(Nc3ccc(N4CCNCC4)cn3)nc2n1C1CCCC1 [LEE011]	Synergy (considered synergistic if the IC50 value of the second compound decreased by 2-fold or more when EPZ-5676 was added as compared to the DMSO control)	Synergy (considered synergistic if the IC50 value of the second compound decreased by 2-fold or more when EPZ-5676 was added as compared to the DMSO control)	–
C=C(c1ccc(C(=O)O)cc1)c1cc2c(cc1C)C(C)(C)CCC2(C)C [Bexarotene]	Synergy (considered synergistic if the IC50 value of the second compound decreased by 2-fold or more when EPZ-5676 was added as compared to the DMSO control)	Synergy (considered synergistic if the IC50 value of the second compound decreased by 2-fold or more when EPZ-5676 was added as compared to the DMSO control)	–
Cc1sc2c(c1C)C(c1ccc(Cl)cc1)=N[C@@H](CC(=O)Nc1ccc(O)cc1)c1nnc(C)n1-2 [OTX015]	Synergy (considered synergistic if the IC50 value of the second compound decreased by 2-fold or more when EPZ-5676 was added as compared to the DMSO control)	Synergy (considered synergistic if the IC50 value of the second compound decreased by 2-fold or more when EPZ-5676 was added as compared to the DMSO control)	–
CNC(=O)c1cc(Oc2ccc(NC(=O)Nc3ccc(Cl)c(C(F)(F)F)c3)cc2)ccn1 [Sorafenib]	–	Synergy (considered synergistic if the IC50 value of the second compound decreased by 2-fold or more when EPZ-5676 was added as compared to the DMSO control)	Combination with EPZ-5676, MOLM-13 (MLL-AF9) Retest (MOLM-13 (MLL-AF9) [1]): Synergy (considered synergistic if the GI100 (Growth inhibition 100) value of the second compound decreased by 2-fold or more when EPZ-5676 was added as compared to the DMSO control); Combination with EPZ-5676, MOLM-13 (MLL-AF9) Primary screen (MOLM-13 (MLL-AF9) [1]): Synergy (considered synergistic if the GI100 (Growth inhibition 100) value of the second compound decreased by 2-fold or more when EPZ-5676 was added as compared to the DMSO control)
NC1(c2ccc(-c3nc4ccn5c(=O)[nH]nc5c4cc3-c3ccccc3)cc2)CCC1 [MK2206]	Synergy (considered synergistic if the IC50 value of the second compound decreased by 2-fold or more when EPZ-5676 was added as compared to the DMSO control)	Synergy (considered synergistic if the IC50 value of the second compound decreased by 2-fold or more when EPZ-5676 was added as compared to the DMSO control)	Combination with Compound A2, MOLM13 (MOLM-13 (MLL-AF9) [2]): Additive (additive effect by CI equal to 1)
COc1ccc(-c2ccc3c(N4CCOCC4)nc(N4C[C@@H](C)O[C@@H](C)C4)nc3n2)cc1CO [KU 0063794]	Synergy (considered synergistic if the IC50 value of the second compound decreased by 2-fold or more when EPZ-5676 was added as compared to the DMSO control)	Synergy (considered synergistic if the IC50 value of the second compound decreased by 2-fold or more when EPZ-5676 was added as compared to the DMSO control)	–
CC1=C(/C=C/C(C)=C/C=C/C(C)=C/C(=O)O)C(C)(C)CCC1 [Tretinoin]	Synergy (considered synergistic if the IC50 value of the second compound decreased by 2-fold or more when EPZ-5676 was added as compared to the DMSO control)	Synergy (considered synergistic if the IC50 value of the second compound decreased by 2-fold or more when EPZ-5676 was added as compared to the DMSO control)	–
O=C(/C=C/c1ccc(O)c(O)c1)OCCc1ccccc1 [CAPE]	Synergy (considered synergistic if the IC50 value of the second compound decreased by 2-fold or more when EPZ-5676 was added as compared to the DMSO control)	Synergy (considered synergistic if the IC50 value of the second compound decreased by 2-fold or more when EPZ-5676 was added as compared to the DMSO control)	–
